Measurements reported in patent US20100003217A1, “Compounds and Pharmaceutical Compositions for the Treatment of Viral Infections” (priority 2008, published 2010).
Several values for one entry are separate records, joined by “and”; a condition that tells them apart may be missing. Equal values may be shown once.

Test system: Huh-7 cells
Experiment: Metabolic disposition of [^14C]-Compound 1 and [^14C]-2′-C-methyl guanosine in Huh-7 cells (incubation medium, cellular extracts, nucleotide levels)
Format: in vitro ADME, human
Conditions: for AUC (area under the concentration-time curve) of Compound 7 levels / 2′-C-methyl guanosine nucleotide levels in cellular extracts / Major metabolites observed in cellular extracts (% of total radioactivity): Huh7; for AUC (area under the concentration-time curve) of Compound 7 levels: 0-72 h
Experimental: Huh-7 cells: Confluent monolayers of Huh-7 cells were dispersed using trypsin-EDTA, rinsed and pelleted by centrifugation at 1,000 rpm (Beckman, Model Allegra 6R). Cells were resuspended at 0.2, 0.3 and 0.4×10^6 cells/mL of medium (DMEM supplemented with 1% pyruvate, 10% FBS, 0.5% penicillin-streptomycin, 1% L-glutamine, 1% non-essential amino acids and 22 mM HEPES). Multi-well collagen I-coated plates (rat tail collagen type I; 6-well) were then seeded by addition of 2.0 mL of cell suspension to achieve final cell density of 0.4, 0.6 and 0.8×10^6 cells/well and placed in an incubator at 37° C. overnight to allow cells to attach and acclimatize to culture and the medium. Duplicate plates were prepared with the same cell density for cell number determination at each time point.
Huh-7 incubations were conducted in a final volume of 2.0 mL Huh7 culture medium/well ([…]). Culture medium from overnight incubation of cells was removed and replaced with fresh culture medium, pre-warmed to 37° C. containing [^14C]-Compound 1 or [^14C]-2′-C-methyl guanosine as described above for primary hepatocytes. After 24, 48 and 72 hours, 0.5-1.0 mL of incubation medium was removed and stored at −20° C. until analysis (described below). The remaining medium was discarded and cell monolayers processed and extracted as described above.
Preliminary identification of putative metabolites was conducted by comparing the retention time of observed metabolites in incubation medium and cellular extracts with retention times obtained with chemically synthesized standards using the chromatography conditions described below. Further identification of 2′-C-methyl guanosine nucleotides (mono-, di- and triphosphate) was carried out by incubating cellular extract samples with alkaline phosphatase (10 units for 60 min at 37° C.) and comparing the HPLC retention times of the resulting nucleosides with that of authentic 2′-C-methyl guanosine.
Cellular extracts were prepared by centrifugation at 16,000 RCF using an Eppendorf microcentrifuge (Eppendorf, Model 5415D) for 10 min to remove cellular debris. An aliquot of 5-10 μL of the supernatant was added to 5 mL of EcoLite™ (MP, Irvine, Calif.) liquid scintillation cocktail and radioactivity measured by liquid scintillation counting (LSC) using a Beckman Coulter LS6500 multipurpose liquid scintillation counter (Beckman Instruments, Fullerton, Calif.). The remaining sample was then dried using a Labconco refrigerated centrivap concentrator (Labconco, Kansas City, Mo.). Dry extracts were reconstituted in 120 μL of HPLC-grade water and centrifuged at 16,000 RCF using an Eppendorf microcentrifuge for 10 min. Prior to HPLC analysis (described below), radioactivity of the concentrated extracts was measured by LSC using 5 μL aliquots. Extraction recovery was then determined by comparing total radioactivity in extracts before and after drying. The remaining extract was then analyzed by HPLC with online radioactivity detection using a Flow Scintillation Analyzer Radiomatic™ 515TR. Radioactivity in the separated components was quantified by integrating the peaks using Flo-One™ Software (Perkin Elmer Life Sciences). Samples with poor recovery (<85%) were re-analyzed when possible.
Incubation medium samples were thawed at room temperature, vortexed and centrifuged at 16,000 RCF using an Eppendorf microcentrifuge. An aliquot of 10 μL was added to 5 mL of EcoLite™ (MP, Irvine, Calif.) liquid scintillation cocktail and radioactivity measured by LSC using a Beckman Coulter LS6500 multipurpose liquid scintillation counter (Beckman Instruments, Fullerton, Calif.). Samples (50-100 μL) were then analyzed by HPLC (described below) with online radioactivity detection using a Flow Scintillation Analyzer Radiomatic™ 515TR. Radioactivity in the separated components was quantified by integrating the peaks using Flo-One™ Software (Perkin Elmer Life Sciences). Samples with poor recovery (<85%) were re-analyzed when possible. […]

[1] = 10 μM [^14C]-2′-C-methyl guanosine, 0 h, n = 1
[2] = 10 μM [^14C]-2′-C-methyl guanosine, 24 h
[3] = 10 μM [^14C]-2′-C-methyl guanosine, 24 h, n = 1
[4] = 10 μM [^14C]-2′-C-methyl guanosine, 48 h
[5] = 10 μM [^14C]-2′-C-methyl guanosine, 48 h, n = 1
[6] = 10 μM [^14C]-2′-C-methyl guanosine, 72 h
[7] = 10 μM [^14C]-2′-C-methyl guanosine, 72 h, n = 1
[8] = 10 μM [^14C]-Compound 1, 0 h, replicate 1 of n = 2
[9] = 10 μM [^14C]-Compound 1, 0 h, replicate 2 of n = 2
[10] = 10 μM [^14C]-Compound 1, 24 h, first series
[11] = 10 μM [^14C]-Compound 1, 24 h, replicate 1 of n = 2
[12] = 10 μM [^14C]-Compound 1, 24 h, replicate 2 of n = 2
[13] = 10 μM [^14C]-Compound 1, 24 h, second series
[14] = 10 μM [^14C]-Compound 1, 48 h, first series
[15] = 10 μM [^14C]-Compound 1, 48 h, replicate 1 of n = 2
[16] = 10 μM [^14C]-Compound 1, 48 h, replicate 2 of n = 2
[17] = 10 μM [^14C]-Compound 1, 48 h, second series
[18] = 10 μM [^14C]-Compound 1, 72 h, first series
[19] = 10 μM [^14C]-Compound 1, 72 h, replicate 1 of n = 2
[20] = 10 μM [^14C]-Compound 1, 72 h, replicate 2 of n = 2
[21] = 10 μM [^14C]-Compound 1, 72 h, second series

SMILES | 2′-C-methyl guanosine nucleotide levels in cellular extracts [1] | Major metabolites observed in cellular extracts (% of total radioactivity) [2] | 2′-C-methyl guanosine nucleotide levels in cellular extracts [3] | Major metabolites observed in cellular extracts (% of total radioactivity) [4] | 2′-C-methyl guanosine nucleotide levels in cellular extracts [5] | Major metabolites observed in cellular extracts (% of total radioactivity) [6] | 2′-C-methyl guanosine nucleotide levels in cellular extracts [7] | 2′-C-methyl guanosine nucleotide levels in cellular extracts [8] | 2′-C-methyl guanosine nucleotide levels in cellular extracts [9] | Major metabolites observed in cellular extracts (% of total radioactivity) [10] | 2′-C-methyl guanosine nucleotide levels in cellular extracts [11] | 2′-C-methyl guanosine nucleotide levels in cellular extracts [12] | Major metabolites observed in cellular extracts (% of total radioactivity) [13] | Major metabolites observed in cellular extracts (% of total radioactivity) [14] | 2′-C-methyl guanosine nucleotide levels in cellular extracts [15] | 2′-C-methyl guanosine nucleotide levels in cellular extracts [16] | Major metabolites observed in cellular extracts (% of total radioactivity) [17] | Major metabolites observed in cellular extracts (% of total radioactivity) [18] | 2′-C-methyl guanosine nucleotide levels in cellular extracts [19] | Major metabolites observed in cellular extracts (% of total radioactivity) [21] | also measured
C[C@@]1(O)[C@H](O)[C@@H](COP(=O)(O)OP(=O)(O)OP(=O)(O)O)O[C@H]1n1cnc2c(=O)[nH]c(N)nc21 [Compound 7, [(2R)-2-methyl-β-D-ribofuranosyl]guanine 5′-triphosphate] | 0 pmol/million cells | 10.5 % of total radioactivity | 3.10 pmol/million cells | 7.18 % of total radioactivity | 1.40 pmol/million cells | 10.4 % of total radioactivity | 1.60 pmol/million cells | 0 pmol/million cells | 0 pmol/million cells | 59.7 % of total radioactivity | 8.60 pmol/million cells | 21.3 pmol/million cells | 71.8 % of total radioactivity | 71.5 % of total radioactivity | 16.1 pmol/million cells | 15.2 pmol/million cells | 59.3 % of total radioactivity | 72.1 % of total radioactivity | 11.1 pmol/million cells | 69.6 % of total radioactivity | AUC (area under the concentration-time curve) of Compound 7 levels (10 μM [^14C]-2′-C-methyl guanosine, n = 1): 120 pmol * hr/million cells; AUC (area under the concentration-time curve) of Compound 7 levels (10 μM [^14C]-Compound 1, replicate 1 of n = 2): 726 pmol * hr/million cells; AUC (area under the concentration-time curve) of Compound 7 levels (10 μM [^14C]-Compound 1, replicate 2 of n = 2): 1,020 pmol * hr/million cells; 2′-C-methyl guanosine nucleotide levels in cellular extracts [20]: 13.3 pmol/million cells; Compound 7 AUC0-72h (Huh7 cells (n=1), [^14C]-2′-C-methyl guanosine): 120 pmol*h/million cells; Compound 7 AUC0-72h (Huh7 cells (n=2), [^14C]-Compound 1): 873 pmol*h/million cells; Compound 7 maximum concentration (Huh7 cells, [^14C]-2′-C-methyl guanosine, at 24 hours): 3 pmol/million cells; Maximum Compound 7 levels (Huh7 cells, [^14C]-Compound 1, at 48 hours): 16 pmol/million cells; % of total radioactivity in cellular extracts (Huh7 cells, up to 72 hours after [^14C]-Compound 1 incubation): 83-93%; Levels of Compound 7 in Huh7 cells lower than in human hepatocytes ([^14C]-Compound 1): 88%
C[C@@]1(O)[C@H](O)[C@@H](CO)O[C@H]1n1cnc2c(=O)[nH]c(N)nc21 [2′-C-methyl guanosine, 9-(2-C-methyl-β-D-ribofuranosyl)guanine, reference compound] |  | 89.5 % of total radioactivity |  | 89.3 % of total radioactivity |  | 89.6 % of total radioactivity |  |  |  | BLD^a (BLD = below limit of detection (30 DPM)) |  |  | BLD^a (BLD = below limit of detection (30 DPM)) | BLD (BLD = below limit of detection (30 DPM)) |  |  | 2.65 % of total radioactivity | BLD (BLD = below limit of detection (30 DPM)) |  | BLD (BLD = below limit of detection (30 DPM)) | metabolites in the incubation medium following incubation with [^14C]-2′-C-methyl guanosine (Huh7 cells): No metabolites were observed; metabolites observed in medium (% of total radioactivity) (Huh7 cells (n=2), 10 μM [^14C]-Compound 1, 0 h): BLD and BLD^a; metabolites observed in medium (% of total radioactivity) (Huh7 cells (n=2), 10 μM [^14C]-Compound 1, 24 h): 2.2% and 1.10% and 1.2%; metabolites observed in medium (% of total radioactivity) (Huh7 cells (n=2), 10 μM [^14C]-Compound 1, 48 h): 2.7% and 0.5%; metabolites observed in medium (% of total radioactivity) (Huh7 cells (n=2), 10 μM [^14C]-Compound 1, 72 h): 2% and 2.3% and 1.5%
C[C@@]1(O)[C@H](O)[C@@H](COP(=O)(O)OP(=O)(O)O)O[C@H]1n1cnc2c(=O)[nH]c(N)nc21 [Compound 6, [(2R)-2-methyl-β-D-ribofuranosyl]guanine 5′-diphosphate] | 0 pmol/million cells | BLD (BLD = below limit of detection (30 DPM)) | BLD (BLD = below limit of detection (0.02 pmol/million cells)) | 3.56 % of total radioactivity | BLD (BLD = below limit of detection (0.02 pmol/million cells)) | BLD (BLD = below limit of detection (30 DPM)) | BLD (BLD = below limit of detection (0.02 pmol/million cells)) | 0 pmol/million cells | 0 pmol/million cells | BLD (BLD = below limit of detection (30 DPM)) | 2.20 pmol/million cells | 0 pmol/million cells | 7.55 % of total radioactivity | 6.14 % of total radioactivity | 1.60 pmol/million cells | 1.40 pmol/million cells | 6.42 % of total radioactivity | 6.86 % of total radioactivity | 1.60 pmol/million cells | 8.44 % of total radioactivity | 2′-C-methyl guanosine nucleotide levels in cellular extracts [20]: 1.10 pmol/million cells
